This note sets out measurements from PubChem BioAssay (NCI).

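How tested: cells in 96-well plates exposed to compound for 48 hours at five concentrations. The concentration for 50% growth inhibition is given as GI50. TGI is the concentration that stops growth completely.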 A value given as a limit tells only on which side of the number the result lay.

Test systems include NCI-H460 lung; K-562 leukemia; SN12C renal; OVCAR-3 ovarian; SF-268 CNS; ACHN renal; U251 CNS; HCT-116 colon; NCI/ADR-RES ovarian.
Common to all, as to assay: NCI-60 cell line screen, 48 h

With `N#CC(C(=O)C(=O)Nc1ccc(Cl)c(Cl)c1)c1ccc(Cl)cc1` (stereo not drawn), the TGI is 96.7 µM in the assay on NCI-H460 lung; 60.1 µM in the assay with K-562 leukemia; above 100 µM in the assay on SN12C renal; above 100 µM with OVCAR-3 ovarian; above 100 µM with SF-268 CNS; above 100 µM with ACHN renal. Also, the TGI in the assay on U251 CNS was above 100 µM; in the assay with HCT-116 colon, 49.8 µM.

Consider `CC(C)N(C(=O)C12C3C4C5C3C1(C#N)C5C42)C(C)C` (stereo not drawn), for which the TGI with NCI-H460 lung, in the assay on K-562 leukemia, with SN12C renal, with OVCAR-3 ovarian, in the assay with SF-268 CNS and in the assay on ACHN renal was above 100 µM in each case. The TGI with U251 CNS and with HCT-116 colon was above 100 µM in each case.

With `COc1ccc2c([nH]c3cc(O)c(C)cc32)c1CC=C(C)C`, the GI50 is 5.56 µM in the assay on NCI-H460 lung; 5.78 µM in the assay with K-562 leukemia; 9.66 µM in the assay on SF-268 CNS; 9.35 µM in the assay with ACHN renal; 5.89 µM in the assay on U251 CNS; 11.9 µM in the assay on HCT-116 colon. Also, the TGI is 14.1 µM with NCI-H460 lung; 24 µM in the assay with K-562 leukemia; 10.8 µM with SN12C renal; 12.4 µM in the assay on OVCAR-3 ovarian; above 25 µM with SF-268 CNS; above 25 µM in the assay with ACHN renal. In addition, the TGI is 13.7 µM with U251 CNS and above 25 µM in the assay on HCT-116 colon.

As to `NC(=O)OCC(COc1ccc(Cl)cc1)OC(=O)c1cc([N+](=O)[O-])cc([N+](=O)[O-])c1` (stereo not drawn), the TGI in the assay with NCI-H460 lung, in the assay on K-562 leukemia, in the assay on SN12C renal, in the assay on OVCAR-3 ovarian, with SF-268 CNS and in the assay with ACHN renal was above 100 µM each time. Moreover, the TGI with U251 CNS and with HCT-116 colon was above 100 µM in each case.

`COC(=O)C1=C(C)N(NC(=O)c2cccc(Cl)c2)C(C)(O)C12CCOC2=O` (stereo not drawn): the TGI in the assay with NCI-H460 lung, with K-562 leukemia, with SN12C renal, in the assay on OVCAR-3 ovarian, in the assay with SF-268 CNS and in the assay with ACHN renal was above 100 µM each time. Further, the TGI in the assay on U251 CNS and in the assay with HCT-116 colon was above 100 µM in each case.

Consider `C/C=C/C=C\C(=O)C1c2cccc(O)c2C(=O)c2c(O)cc(C)cc21` (stereo not drawn), for which the TGI with NCI-H460 lung was 1.47 µM; in the assay with K-562 leukemia it was above 100 µM; in the assay on SN12C renal, 5.74 µM; in the assay with OVCAR-3 ovarian, 2.2 µM; in the assay on SF-268 CNS, 2.05 µM; in the assay on ACHN renal it was 2.66 µM. In addition, the TGI in the assay on U251 CNS worked out at 1.63 µM; with HCT-116 colon, 2.92 µM.

On to `[O]=[W](=[O])([OH])[OH]`, for which the GI50 with NCI-H460 lung, with K-562 leukemia, in the assay with SN12C renal, with NCI/ADR-RES ovarian, with OVCAR-3 ovarian and with SF-268 CNS was above 100 µM throughout. The GI50 in the assay with ACHN renal, with U251 CNS and in the assay with HCT-116 colon was above 100 µM each time. Besides, the TGI in the assay on NCI-H460 lung, with K-562 leukemia, in the assay with SN12C renal, with NCI/ADR-RES ovarian, in the assay with OVCAR-3 ovarian and in the assay on SF-268 CNS was above 100 µM throughout. The TGI with ACHN renal, in the assay with U251 CNS and in the assay with HCT-116 colon was above 100 µM in each case.

As for `CNC(=O)OCc1cc2ccncc2c2c1[nH]c1ccccc12`, the TGI in the assay on NCI-H460 lung is above 100 µM; in the assay on K-562 leukemia it was above 100 µM; in the assay on SN12C renal, above 100 µM; with OVCAR-3 ovarian, above 100 µM; in the assay on SF-268 CNS, above 41.8 µM; in the assay on ACHN renal it was above 100 µM. Further, the TGI with U251 CNS and in the assay on HCT-116 colon was above 100 µM in each case.

Take `C[C@]12CC/C(=N\OC(=O)Nc3ccccc3)C=C1CC[C@@H]1C2CC[C@@]2(C)C1CC[C@@H]2OC(=O)Nc1ccccc1` (stereo partly drawn): the TGI with NCI-H460 lung was above 100 µM; in the assay on K-562 leukemia, above 100 µM; in the assay with SN12C renal it was 30.8 µM; in the assay on OVCAR-3 ovarian it was above 100 µM; in the assay on SF-268 CNS it was above 100 µM; in the assay with ACHN renal, above 100 µM. The TGI in the assay with U251 CNS and with HCT-116 colon was above 100 µM each time.

`COc1ccc2cc(C(=O)/C=C/c3ccco3)ccc2c1`: the GI50 in the assay with NCI-H460 lung was 22.7 µM; in the assay on K-562 leukemia it was 38 µM; with SN12C renal it was 31.3 µM; in the assay with NCI/ADR-RES ovarian, 23.8 µM; with OVCAR-3 ovarian, 44 µM; with SF-268 CNS, 20 µM. Also, the GI50 in the assay with ACHN renal is 29.4 µM; with U251 CNS it was 28.5 µM; in the assay on HCT-116 colon, 1.29 µM. For the same molecule, the TGI with NCI-H460 lung was 52.6 µM; with K-562 leukemia, above 100 µM; in the assay with SN12C renal it was above 100 µM; in the assay with NCI/ADR-RES ovarian it was 63.8 µM; in the assay with OVCAR-3 ovarian, above 100 µM; in the assay on SF-268 CNS, 45.5 µM. Moreover, the results for the TGI in the assay with ACHN renal, in the assay with U251 CNS and in the assay on HCT-116 colon were 79.1 µM, 97.4 µM and 35.6 µM, respectively.

On to `CCCCC/C=C\C/C=C/CCCCCCCCNC(=O)Nc1ccc([N+](=O)[O-])cc1`, for which the GI50 in the assay on NCI-H460 lung is 21.9 µM; in the assay with SN12C renal, 8.12 µM; with NCI/ADR-RES ovarian, 7.8 µM; in the assay on OVCAR-3 ovarian, 6.74 µM; in the assay on SF-268 CNS, 38 µM; in the assay with ACHN renal, 6.8 µM. In addition, the GI50 in the assay on U251 CNS was 6.05 µM; with HCT-116 colon, 4.17 µM. In addition, the TGI in the assay with NCI-H460 lung, in the assay on SN12C renal, with NCI/ADR-RES ovarian, with OVCAR-3 ovarian, in the assay on SF-268 CNS and with ACHN renal was above 100 µM in each case. Also, the TGI was above 100 µM in the assay on U251 CNS and 35.6 µM in the assay with HCT-116 colon.

`Cc1cn2c(/C=N/N=C(N)N)c(-c3cc(Cl)sc3Cl)nc2s1`: the GI50 was 1.74 µM in the assay with NCI-H460 lung, 5.57 µM in the assay on NCI/ADR-RES ovarian and 0.908 µM in the assay on ACHN renal. Moreover, the TGI was above 50 µM with NCI-H460 lung, 13.3 µM in the assay on NCI/ADR-RES ovarian and 1.63 µM in the assay on ACHN renal.
